Laboratory results: ChEMBL document CHEMBL1128187, “1 alpha,25-dihydroxyvitamin D3 analogs featuring aromatic and heteroaromatic rings: design, synthesis, and preliminary biological testing” (1995)

Experiments:
Format in all cases: functional
[1] = organism: Rattus norvegicus; assay: Patch clamp determination of calcium current in rat Osteosarcoma cells at 50.0 nM
[2] = organism: Rattus norvegicus; assay: Patch clamp determination of calcium current in rat Osteosarcoma cells at 0.5 nM
[3] = organism: Rattus norvegicus; assay: Patch clamp determination of calcium current in rat Osteosarcoma cells at 5.0 nM

SMILES	Ca2+ current [1] [mV]	Ca2+ current [2] [mV]	Ca2+ current [3] [mV]
C[C@H](CCCC(C)(C)O)[C@H]1CC[C@H]2C(c3ccc(CO)c(CO)c3)=CCC[C@]12C	7.03	-0.08	1.45
C[C@@H](COCCCC(C)(C)O)[C@H]1CC[C@H]2C(c3ccc(CO)c(CO)c3)=CCC[C@]12C	0.63	0.02	0.15
C=C1/C(=C\C=C2/CCC[C@]3(C)[C@@H]([C@H](C)CCCC(C)(C)O)CC[C@@H]23)C[C@@H](O)C[C@@H]1O [CALCITRIOL]	10.2	5.73	9.79
